In series [1] the test system is E. faecalis.
Series [2] deals with 19 selected strains of Gram-negative bacteria. The format is cell-based. Conditions: for antibacterial / bacteriocidal activity (in words): 19 Gram-negative strains; for number of the 19 Gram-negative strains inhibited: peptide at 16 μg/ml (~4 μM). An excerpt: FIG. 3. […] FIG. 3A. […] FIG. 3B. […] FIG. 3C. […] FIG. 3D. […] FIG. 3F.
The subject of series [3] is human red blood cells (hRBCs). Conditions: human RBCs.
For series [4], the system named is S. aureus.
In series [5] the test system is Toll-like receptor 3 (TLR3). In words: IL-6 ELISA, TLR3 signaling with poly(I:C) in BEAS-2B cells. Format: cell-based, human. Background: An ELISA detects its analyte on a solid surface through an enzyme-linked reagent.
Method: Innate immune signaling by endogenous Toll-like receptor 3 (TLR3) in BEAS-2B cells in response to double-stranded RNA and various bacteriocidal peptides. IL-6 cytokine produced in response to signal transduction by TLR3 and the double-stranded RNA mimic, poly(I:C), was quantified using ELISA. Where present, the peptides were added to the media of BEAS-2B cells to a final concentration of 2 μM. […] All assays were performed in three independent samples and the mean and one standard error is shown above the bars.

≈ marks a conversion by molar mass, not a printed value. Entries after “also recorded” stand apart in the source; their conditions may differ. Read-outs that look alike come from different tables or passages of the source. Residues, ends and D or L forms follow the SMILES beside them. No end group written: not given here. A value given as a limit tells only on which side of the number the result lay.

As usually defined, the MIC is the smallest concentration in the dilution series that meets the test's criterion for growth inhibition. Low readings indicate inhibition by little substance, high ones a need for much substance.

Turning to `CC[C@H](C)[C@H](NC(=O)[C@@H](NC(=O)[C@@H]1CCCN1C(=O)[C@H](CO)NC(=O)[C@H](CC(C)C)NC(=O)[C@H](CCCCN)NC(=O)[C@H](CCCCN)NC(=O)[C@H](Cc1ccccc1)NC(=O)[C@H](CC(C)C)NC(=O)[C@H](CCCCN)NC(=O)[C@H](CCCCN)NC(=O)[C@H](Cc1ccccc1)NC(=O)[C@H](CCCCN)NC(=O)[C@H](CCCCN)NC(=O)[C@H](CCCNC(=N)N)NC(=O)[C@H](Cc1ccccc1)NC(=O)[C@H](CCCNC(=N)N)NC(=O)[C@H](CCCCN)NC(=O)[C@H](Cc1ccccc1)NC(=O)[C@H](CCCNC(=N)N)NC(=O)CN)C(C)C)C(=O)N1CCC[C@H]1C(=O)N[C@@H](CC(C)C)C(=O)N[C@@H](CC(C)C)C(=O)N[C@@H](Cc1c[nH]cn1)C(=O)N[C@@H](CC(C)C)C(=O)NCC(=O)O` [BMAP-27] (H-GRFKRFRKKFKKLFKKLSPVIPLLHLG-OH; N-terminus and C-terminus assumed), the MIC in series [1] is above 32 µg/mL. In addition, in series [2], the “antibacterial / bacteriocidal activity (in words)” value is “most potent antibacterial activities; also recorded: most effective”.
On to `CC[C@H](C)[C@H](NC(=O)[C@H](CCCCN)NC(=O)[C@H](CCCNC(=N)N)NC(=O)CNC(=O)[C@H](CC(C)C)NC(=O)[C@H](CCCCN)NC(=O)[C@H](CCC(N)=O)NC(=O)[C@@H](NC(=O)[C@H](CCCNC(=N)N)NC(=O)[C@H](CCCCN)NC(=O)[C@H](CCCNC(=N)N)NC(=O)[C@@H](NC(=O)[C@H](CCCCN)NC(=O)[C@H](CCCNC(=N)N)NC(=O)[C@H](Cc1ccccc1)NC(=O)[C@H](CCCCN)NC(=O)[C@H](CCCCN)NC(=O)[C@H](CCCNC(=N)N)NC(=O)[C@H](CC(C)C)NC(=O)CN)[C@@H](C)O)[C@@H](C)CC)C(=O)NCC(=O)N[C@@H](CCCCN)C(=O)N[C@H](C(=O)NCC(=O)N[C@@H](CCCNC(=N)N)C(=O)N[C@@H](CCCCN)C(=O)N[C@H](C(=O)N[C@@H](Cc1c[nH]c2ccccc12)C(=O)N[C@@H](CCCCN)C(=O)N[C@@H](C)C(=O)N[C@@H](Cc1c[nH]c2ccccc12)C(=O)N[C@@H](CCCNC(=N)N)C(=O)N[C@@H](CCC(=O)O)C(=O)N[C@@H](Cc1ccc(O)cc1)C(=O)O)C(C)C)[C@@H](C)O` [CAP-11V1] (H-GLRKKFRKTRKRIQKLGRKIGKTGRKVWKAWREY-OH), for which the values for the minimal inhibitory concentration (MIC) in series [1], in series [4] (S. aureus 25923) and in series [4] (S. aureus 29213) were above 32 µg/mL, 32 µg/mL (≈ 7.51 µM) and 32 µg/mL (≈ 7.51 µM), respectively. Besides, in series [3], the “RBC lysis (in words)” value is listed as “decreased RBC lysis; also recorded: did not result in increased lysis of human RBCs”.
Regarding `CC[C@H](C)[C@H](NC(=O)[C@H](CCCCN)NC(=O)[C@H](CCC(=O)O)NC(=O)[C@H](CCCCN)NC(=O)[C@H](CO)NC(=O)[C@H](CCCCN)NC(=O)[C@H](CCCNC(=N)N)NC(=O)[C@H](Cc1ccccc1)NC(=O)[C@H](Cc1ccccc1)NC(=O)[C@H](C)NC(=O)CNC(=O)[C@H](CC(C)C)NC(=O)[C@@H](N)CC(C)C)C(=O)NCC(=O)N[C@@H](CCCCN)C(=O)N[C@@H](C)C(=O)N[C@@H](Cc1ccccc1)C(=O)N[C@@H](CCCCN)C(=O)N[C@@H](CCCNC(=N)N)C(=O)N[C@H](C(=O)N[C@H](C(=O)N[C@@H](CCC(N)=O)C(=O)N[C@@H](CCCNC(=N)N)C(=O)N[C@H](C(=O)N[C@@H](CCCCN)C(=O)N[C@@H](CC(=O)O)C(=O)N[C@@H](Cc1ccccc1)C(=O)N[C@@H](CC(C)C)C(=O)N[C@@H](CCCNC(=N)N)C(=O)O)[C@@H](C)CC)C(C)C)[C@@H](C)CC` [LL-29V2] (H-LLGAFFRKSKEKIGKAFKRIVQRIKDFLR-OH), in series [3], the “RBC lysis (in words)” value was “slightly increased RBC lysis”.
As for `CC[C@H](C)[C@H](NC(=O)[C@H](CCCCN)NC(=O)[C@H](C)NC(=O)[C@H](CCCCN)NC(=O)[C@H](CO)NC(=O)[C@H](CCCCN)NC(=O)[C@H](CCCNC(=N)N)NC(=O)[C@H](Cc1ccccc1)NC(=O)[C@H](Cc1ccccc1)NC(=O)[C@H](C)NC(=O)CNC(=O)[C@H](CC(C)C)NC(=O)[C@@H](N)CC(C)C)C(=O)NCC(=O)N[C@@H](CCCCN)C(=O)N[C@@H](C)C(=O)N[C@@H](Cc1ccccc1)C(=O)N[C@@H](CCCCN)C(=O)N[C@@H](CCCNC(=N)N)C(=O)N[C@H](C(=O)N[C@H](C(=O)N[C@@H](CCC(N)=O)C(=O)N[C@@H](CCCNC(=N)N)C(=O)N[C@H](C(=O)N[C@@H](CCCCN)C(=O)N[C@@H](C)C(=O)N[C@@H](Cc1ccccc1)C(=O)N[C@@H](CC(C)C)C(=O)N[C@@H](CCCNC(=N)N)C(=O)O)[C@@H](C)CC)C(C)C)[C@@H](C)CC` [LL-29V] (H-LLGAFFRKSKAKIGKAFKRIVQRIKAFLR-OH), in series [3], the “RBC lysis (in words)” value is recorded as “comparable levels of RBC lysis as LL-29”.
On the same count and under the same terms, with `CC[C@H](C)[C@H](NC(=O)[C@H](CCCCN)NC(=O)[C@H](CCC(=O)O)NC(=O)[C@H](CCCCN)NC(=O)[C@H](CO)NC(=O)[C@H](CCCCN)NC(=O)[C@H](CCCNC(=N)N)NC(=O)[C@H](Cc1ccccc1)NC(=O)[C@H](Cc1ccccc1)NC(=O)[C@H](CC(=O)O)NC(=O)CNC(=O)[C@H](CC(C)C)NC(=O)[C@@H](N)CC(C)C)C(=O)NCC(=O)N[C@@H](CCCCN)C(=O)N[C@@H](CCC(=O)O)C(=O)N[C@@H](Cc1ccccc1)C(=O)N[C@@H](CCCCN)C(=O)N[C@@H](CCCNC(=N)N)C(=O)N[C@H](C(=O)N[C@H](C(=O)N[C@@H](CCC(N)=O)C(=O)N[C@@H](CCCNC(=N)N)C(=O)N[C@H](C(=O)N[C@@H](CCCCN)C(=O)N[C@@H](CC(=O)O)C(=O)N[C@@H](Cc1ccccc1)C(=O)N[C@@H](CC(C)C)C(=O)N[C@@H](CCCNC(=N)N)C(=O)O)[C@@H](C)CC)C(C)C)[C@@H](C)CC` [LL-29] (H-LLGDFFRKSKEKIGKEFKRIVQRIKDFLR-OH) the entry was “reduced in RBC lysis; also recorded: did not result in increased lysis of human RBCs”; with `CC[C@H](C)[C@H](NC(=O)[C@H](CCCCN)NC(=O)[C@H](CCC(=O)O)NC(=O)[C@H](CCCCN)NC(=O)[C@H](CO)NC(=O)[C@H](CCCCN)NC(=O)[C@H](CCCNC(=N)N)NC(=O)[C@H](Cc1ccccc1)NC(=O)[C@H](Cc1ccccc1)NC(=O)[C@H](CC(=O)O)NC(=O)CNC(=O)[C@H](CC(C)C)NC(=O)[C@@H](N)CC(C)C)C(=O)NCC(=O)N[C@@H](CCCCN)C(=O)N[C@@H](CCC(=O)O)C(=O)N[C@@H](Cc1ccccc1)C(=O)N[C@@H](CCCCN)C(=O)N[C@@H](CCCNC(=N)N)C(=O)N[C@H](C(=O)N[C@H](C(=O)N[C@@H](CCC(N)=O)C(=O)N[C@@H](CCCNC(=N)N)C(=O)N[C@H](C(=O)N[C@@H](CCCCN)C(=O)N[C@@H](CC(=O)O)C(=O)N[C@@H](Cc1ccccc1)C(=O)N[C@@H](CC(C)C)C(=O)N[C@@H](CCCNC(=N)N)C(=O)N[C@@H](CC(N)=O)C(=O)N[C@@H](CC(C)C)C(=O)N[C@H](C(=O)N1CCC[C@H]1C(=O)N[C@@H](CCCNC(=N)N)C(=O)N[C@H](C(=O)N[C@@H](CCC(=O)O)C(=O)N[C@@H](CO)C(=O)O)[C@@H](C)O)C(C)C)[C@@H](C)CC)C(C)C)[C@@H](C)CC` [LL-37], “RBC lysis in a concentration-dependent manner”.
On to “BMAP-34: SEQ ID NO: 7, cow cathelicidin, GLFRRLRDSIRRGQQKILEKARRIGERIKDIFRG (listed as Bos taurus)”, for which the “enhancement of TLR3 signaling / IL-6 production (in words)” value in series [5] was “more similar to CRAMP”.
Take “GLRKKFRETRKEIQKLGEKIGKTGRKVWKDWREYGQIPYPCRI [CAP-11V3]”: the MIC in series [1], in series [4] (S. aureus 25923) and in series [4] (S. aureus 29213) was above 32 µg/mL throughout.
Regarding “GLRKKFRETRKEIQKLGRKIGKTGRKVWKAWREYGQIPYPCRI [CAP-11V2]”, the MIC in series [1], in series [4] (S. aureus 25923) and in series [4] (S. aureus 29213) was above 32 µg/mL in each case.
On to “GLRKKFRKTRKRIQKLGRKIGKTGRKVWKAWREYGQIPYPCRI [CAP-11]”, for which the MIC in series [1] is above 32 µg/mL; in series [4] (S. aureus 25923), 32 µg/mL; in series [4] (S. aureus 29213), 32 µg/mL. In series [2], the “antibacterial / bacteriocidal activity (in words)” value was “most potent antibacterial activities; also recorded: most effective”. The “number of the 19 Gram-negative strains inhibited” value in series [2] was determined as 16 strains. For the same molecule, the “enhancement of TLR3 signaling / IL-6 production (in words)” value in series [5] is on record as “retained reduced levels of activation of TLR3 in comparison to LL-37; also recorded: retain partial enhancement of TLR3 signaling”.
As to “PMAP-37: SEQ ID NO: 8, pig cathelicidin, GLLSRLRDFLSDRGRRLGEKIERIGQKIKDLSEFFQS (listed as Sus scrofa)”, the “enhancement of TLR3 signaling / IL-6 production (in words)” value in series [5] is reported as “more similar to CRAMP”.
On the same count and under the same terms, with “RL-37: SEQ ID NO: 2, Rhesus monkey cathelicidin, RLGNFFRKVKEKIGGGLKKVGQKIKDFLGNLVPRTAS (listed as Macaca mulatta)” the entry was “retain partial enhancement of TLR3 signaling”.
“eCATH-3: SEQ ID NO: 9, horse cathelicidin, KRFHSVGSLIQRHQQMIRDKSEATRHGIRIITRPKLLLAS (listed as Equus caballus)”: in series [2], the “antibacterial / bacteriocidal activity (in words)” value is on record as “least effective” and the “number of the 19 Gram-negative strains inhibited” value is listed as “did not inhibit the growth of any”. In addition, in series [5], the “enhancement of TLR3 signaling / IL-6 production (in words)” value is reported as “more similar to CRAMP”.

Values taken from patent US10435447B2, “Bacteriocidal peptides and uses thereof” (priority 2015, dated 2019).
